Test results taken from patent US20050176655A1, “Novel macrolide derivatives havaing effect of potentiating antifungal activity” (priority 2002, published 2005).

Columns and labels:
Experiment in all cases: Paper disk method, enhancing action for activities of azole antifungal agents
Assay type in all cases: cell-based
[1] = tested on: Candida albicans ATCC 64548; settings: 24 hours; for Inhibition activity (inhibition ring mm) C. albicans ATCC 64548 GYM / Transparency of the inhibition ring C. albicans ATCC 64548 GYM: miconazole 0.03 μg/ml
Method: (§1) Test organisms used were Candida albicans ATCC 64548, fluconazole resistant Candida albicans ATCC 64550 and Aspergillus niger ATCC 6275. Candida spp. were cultured in Waksman broth (glucose 2.0%, peptone 0.5%, dry yeast 0.3%, meat extract 0.5%, NaCl 0.5% and CaCO3 0.3%, pH 7.0) at 27° C. for 40 hours, then 0.1% thereof was inoculated on GY agar medium (glucose 1.0%, yeast extract 0.5% and agar 0.8%, pH 6.0). Spore suspension 0.2% of Aspergillus niger ATCC 6275 was inoculated on GY agar medium.
(§2) Azole antifungal agents used were miconazole (Sigma Inc., the U.S.) and fluconazole (ICN Pharmaceuticals, Inc., the U.S.), and were added at concentrations without affecting growth on each test organisms follows.
Candida albicans ATCC 64548: miconazole 0.03 μg/ml or fluconazole 0.5 μg/ml.
(§3) In the above medium, a medium added with miconazole to GY medium (control) is designated as GYM, and a medium added with fluconazole is designated as GYF. Activities were assessed by means of paper disk method (thickness: 8 mm, ADVANTEC MFS INC., Japan). Diameter of inhibition ring is expressed with mm unit after culturing Candida spp. for 24 hours and Aspergillus niger ATCC 6275 for 48 hours. Transparency of the inhibition ring is assessed with 5 degrees of A, B, C, D and E (transparence<A<B<C<D<E<opaque).

[2] = tested on: Aspergillus niger ATCC 6275; settings: 48 hours; for Inhibition activity (inhibition ring mm) A. niger ATCC 6275 GYF / Transparency of the inhibition ring A. niger ATCC 6275 GYF: fluconazole 10 μg/ml; for Inhibition activity (inhibition ring mm) A. niger ATCC 6275 GYM / Transparency of the inhibition ring A. niger ATCC 6275 GYM: miconazole 0.1 μg/ml; for Inhibition activity (inhibition ring mm) A. niger ATCC 6275 GY / Transparency of the inhibition ring A. niger ATCC 6275 GY: GY medium (control, no azole)
Method: as §1, §2
Aspergillus niger ATCC 6275: miconazole 0.1 μg/ml or fluconazole 10 μg/ml.
as §3

[3] = tested on: fluconazole resistant Candida albicans ATCC 64550; settings: 24 hours; for Inhibition activity (inhibition ring mm) C. albicans ATCC 64550 GYF / Transparency of the inhibition ring C. albicans ATCC 64550 GYF: fluconazole 30 μg/ml; for Inhibition activity (inhibition ring mm) C. albicans ATCC 64550 GYM / Transparency of the inhibition ring C. albicans ATCC 64550 GYM: miconazole 0.15 μg/ml
Method: as §1, §2
Candida albicans ATCC 64550: miconazole 0.15 μg/ml or fluconazole 30 μg/ml.
as §3

[4] = 50 μg/8 mm disk, GYF, fluconazole 0.5 μg/ml

Row | Structure (SMILES) | Inhibition activity (inhibition ring mm) C. albicans ATCC 64548 GYM ([1]; 50 μg/8 mm disk) [mm] | Transparency of the inhibition ring C. albicans ATCC 64548 GYM ([1]; 50 μg/8 mm disk) | Inhibition activity (inhibition ring mm) A. niger ATCC 6275 GYF ([2]; 10 μg/8 mm disk) [mm] | Transparency of the inhibition ring A. niger ATCC 6275 GYF ([2]; 10 μg/8 mm disk) | Inhibition activity (inhibition ring mm) A. niger ATCC 6275 GYF ([2]; 50 μg/8 mm disk) [mm] | Transparency of the inhibition ring A. niger ATCC 6275 GYF ([2]; 50 μg/8 mm disk) | Inhibition activity (inhibition ring mm) A. niger ATCC 6275 GY ([2]; 50 μg/8 mm disk) [mm] | Transparency of the inhibition ring A. niger ATCC 6275 GY ([2]; 50 μg/8 mm disk) | Inhibition activity (inhibition ring mm) A. niger ATCC 6275 GYM ([2]; 10 μg/8 mm disk) [mm] | Transparency of the inhibition ring A. niger ATCC 6275 GYM ([2]; 10 μg/8 mm disk) | Inhibition activity (inhibition ring mm) A. niger ATCC 6275 GYM ([2]; 50 μg/8 mm disk) [mm] | Transparency of the inhibition ring A. niger ATCC 6275 GYM ([2]; 50 μg/8 mm disk) | Inhibition activity (inhibition ring mm) C. albicans ATCC 64550 GYF ([3]; 50 μg/8 mm disk) [mm] | Transparency of the inhibition ring C. albicans ATCC 64550 GYF ([3]; 50 μg/8 mm disk) | Inhibition activity (inhibition ring mm) C. albicans ATCC 64550 GYM ([3]; 50 μg/8 mm disk) [mm] | Transparency of the inhibition ring C. albicans ATCC 64550 GYM ([3]; 50 μg/8 mm disk) | other results
1 | CCC1OC(=O)C(C)C(OC2CC(C)(OC)C(O)C(C)O2)C(C)C(OC2OC(C)CC(N(C)C)C2O)C(C)(O)CC(C)C(=NOCC=CCNCCN)C(C)C(O)C1(C)O (centres unmarked) [Compound 763, 9(E)-4-(aminoethylamino)-2-butenyloxime-erythromycin A] | 16 | C (Growth of test organism was inhibited 55% or more and 75% or less.) | 12 | E (Growth of test organism was inhibited 35% or less.) | 15 | E (Growth of test organism was inhibited 35% or less.) |  |  |  |  |  |  |  |  |  |  | Inhibition activity (inhibition ring mm) C. albicans ATCC 64548 GYF [1, 4]: 10 mm; Transparency of the inhibition ring C. albicans ATCC 64548 GYF [1, 4]: D (Growth of test organism was inhibited 35% or more and 55% or less.)
2 | CC[C@H]1OC(=O)[C@H](C)[C@@H](O[C@H]2C[C@@](C)(OC)[C@@H](O)[C@H](C)O2)[C@H](C)[C@@H](O[C@@H]2O[C@H](C)C[C@H](N(C)C/C=C/CO/N=C3\[C@H](C)C[C@@](C)(O)[C@H](O[C@@H]4O[C@H](C)C[C@H](N(C)C)[C@H]4O)[C@@H](C)[C@H](O[C@H]4C[C@@](C)(OC)[C@@H](O)[C@H](C)O4)[C@@H](C)C(=O)O[C@H](CC)[C@@](C)(O)[C@H](O)[C@H]3C)[C@H]2O)[C@](C)(O)C[C@@H](C)C(=O)[C@H](C)[C@@H](O)[C@]1(C)O [Compound 765, 3′-de-N-methyl-3′-N-{4-9(E)oxime-erythro-mycin A}-2(E)-butenyl-erythromycin A] | 14 | E (Growth of test organism was inhibited 35% or less.) | 14 | E (Growth of test organism was inhibited 35% or less.) | 21 | E (Growth of test organism was inhibited 35% or less.) |  |  |  |  |  |  |  |  |  |  | Inhibition activity (inhibition ring mm) A. niger ATCC 6275 GYM ([2]; 100 μg/8 mm disk): 14 mm; Transparency of the inhibition ring A. niger ATCC 6275 GYM ([2]; 100 μg/8 mm disk): E (Growth of test organism was inhibited 35% or less.)
3 | C=CCCON=C1C(C)CC(C)(O)C(OC2OC(C)CC(N(C)C)C2O)C(C)C(OC2CC(C)(OC)C(O)C(C)O2)C(C)C(=O)OC(CC)C(C)(O)C(O)C1C (centres unmarked) [Compound 769, 9(E)-3-butenyloxime-erythromycin A] |  |  | 11 | E (Growth of test organism was inhibited 35% or less.) | 16 | E (Growth of test organism was inhibited 35% or less.) | 10 | E (Growth of test organism was inhibited 35% or less.) |  |  |  |  |  |  |  |  | Inhibition activity (inhibition ring mm) C. albicans ATCC 64548 GYM ([1]; 100 μg/8 mm disk): 14 mm; Transparency of the inhibition ring C. albicans ATCC 64548 GYM ([1]; 100 μg/8 mm disk): E (Growth of test organism was inhibited 35% or less.)
4 | CCC1OC1(C)C1OC(=O)C(C)C(OC2CC(C)(OC)C(OS(=O)(=O)c3ccccc3)C(C)O2)C(C)C(OC2OC(C)CC(N(C)C)C2OC(C)=O)C2(C)CC(C)=C(O2)C1C (centres unmarked) [Compound 774, 2′-O-acetyl-4″-O-benzenesulfonyl-12,13-epoxy-8,9-Anhydro-pseudoerythromycin A 6,9-hemiketal] |  |  | 14 | E (Growth of test organism was inhibited 35% or less.) | 17 | E (Growth of test organism was inhibited 35% or less.) |  |  | 13 | E (Growth of test organism was inhibited 35% or less.) | 18 | D (Growth of test organism was inhibited 35% or more and 55% or less.) | 17 | A (Growth of test organism was inhibited 95% or more.) | 17 | A (Growth of test organism was inhibited 95% or more.) | Inhibition activity (inhibition ring mm) C. albicans ATCC 64550 GYF ([3]; 10 μg/8 mm disk): 13 mm; Transparency of the inhibition ring C. albicans ATCC 64550 GYF ([3]; 10 μg/8 mm disk): A (Growth of test organism was inhibited 95% or more.); Inhibition activity (inhibition ring mm) C. albicans ATCC 64550 GYM ([3]; 10 μg/8 mm disk): 14 mm; Transparency of the inhibition ring C. albicans ATCC 64550 GYM ([3]; 10 μg/8 mm disk): A (Growth of test organism was inhibited 95% or more.)
5 | CCC1OC1(C)C1OC(=O)C(C)C(OC2CC(C)(OC)C(OS(=O)(=O)Cc3ccccc3)C(C)O2)C(C)C(OC2OC(C)CC(N(C)C)C2OC(C)=O)C2(C)CC(C)=C(O2)C1C (centres unmarked) [Compound 775, 2′-O-acetyl-4″-O-benzylsulfonyl-12,13-epoxide-8,9-anhydro-pseudoerythromycin A. 6,9-hemiketal] | 10 | E (Growth of test organism was inhibited 35% or less.) | 16 | E (Growth of test organism was inhibited 35% or less.) | 16 | E (Growth of test organism was inhibited 35% or less.) |  |  |  |  | 16 | D (Growth of test organism was inhibited 35% or more and 55% or less.) |  |  |  |  | 
6 | CCC1OC1(C)C1OC(=O)C(C)C(OC2CC(C)(OC)C(OS(=O)(=O)Cc3ccccc3)C(C)O2)C(C)C(OC2OC(C)CC(N(C)C)C2O)C2(C)CC(C)=C(O2)C1C (centres unmarked) [Compound 780, 4″-O-benzylsulfonyl-12,13-epoxy-8,9-anhydro-pseudoerythromycin A. 6,9-hemiketal] |  |  | 11 | E (Growth of test organism was inhibited 35% or less.) | 12 | E (Growth of test organism was inhibited 35% or less.) | 12 | E (Growth of test organism was inhibited 35% or less.) | 14 | E (Growth of test organism was inhibited 35% or less.) | 14 | E (Growth of test organism was inhibited 35% or less.) | 14 | C (Growth of test organism was inhibited 55% or more and 75% or less.) | 12 | C (Growth of test organism was inhibited 55% or more and 75% or less.) | 
